Measurements from US10544126B2, “Sulfonyl piperidine derivatives and their use for treating prokineticin mediated diseases” (TAKEDA PHARMACEUTICAL COMPANY LIMITED, priority 2012, dated 2020).

Target: human PKR1 receptors (Homo sapiens (Human), UniProt Q8TCW9)
Test: PKR1 antagonist assay: block of PK1-mediated intracellular calcium release (FLIPR)
Type: cell-based
Settings: antagonist activity; RBL2H3 cells expressing human PKR1; stimulation with PK1 at EC80; calcium fluorescence
Procedure: Prokineticin receptor 1 (PKR1) antagonists may be functionally assessed by measurement of change in intracellular calcium levels induced by Gq mediated increase in inositol triphosphate (IP3) levels. The ability of a compound to block the intracellular release of calcium mediated by PK1 in RBL2H3 cells expressing human PKR1 receptors is determined as a measure of the compound's antagonist activity in vitro.
Approximately 10,000 cells per assay well are seeded in normal culture medium in a 384 well plate (Corning). […]
To test for antagonist activity, test compounds at a final concentration range between 0.32 nM-10 μM (diluted in assay buffer) are added to the assay wells and allowed to incubate for 10 minutes prior to stimulation with PK1. After incubation with test compounds the assay plate is placed in a FLIPR Tetra (Molecular Devices) and PK1 (diluted in assay buffer) is added at the determined EC80 concentration (final). Ligand-dependent changes in intracellular calcium levels are determined by measuring changes in fluorescence of the dye at […] following excitation at 485 nm.

Sequence of human PKR1 receptors (Q8TCW9 whole entry): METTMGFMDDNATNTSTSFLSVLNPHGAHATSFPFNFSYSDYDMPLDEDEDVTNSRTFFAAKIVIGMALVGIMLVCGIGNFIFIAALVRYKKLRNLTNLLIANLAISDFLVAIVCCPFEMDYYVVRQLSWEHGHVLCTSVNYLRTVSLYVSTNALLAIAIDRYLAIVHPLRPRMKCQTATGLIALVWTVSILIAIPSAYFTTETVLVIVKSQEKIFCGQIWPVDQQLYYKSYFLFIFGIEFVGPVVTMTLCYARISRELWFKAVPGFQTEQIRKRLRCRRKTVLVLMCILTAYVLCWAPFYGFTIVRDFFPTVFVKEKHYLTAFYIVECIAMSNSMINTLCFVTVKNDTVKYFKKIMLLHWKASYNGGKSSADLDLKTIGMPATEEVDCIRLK

## Cc1n[nH]c(C)c1S(=O)(=O)N1CCC(C(C#N)c2ccc(Cl)cc2F)CC1 (stereo not shown) [Example 92, 2-(4-Chloro-2-fluorophenyl)-2-(1-((3,5-dimethyl-1H-pyrazol-4-yl)sulfonyl)piperidin-4-yl)acetonitrile]
  IC50: 1.85 µM
